In ChEMBL document CHEMBL5584348, “Exploring Degradation of Intrinsically Disordered Protein Yes-Associated Protein Induced by Proteolysis TArgeting Chimeras” (J Med Chem, 2024):
Active and inactive are the calls of the source. No cut-off for these calls is given here.

What was measured:
[1] = Cmax in Sprague-Dawley rat at 35 mg/kg, ip measured upto 24 hrs by LC-MS/MS analysis; type: ADME, organism-based; conditions: in vivo
[2] = Toxicity in immunodeficient male NSG mouse xenografted with human Huh-7 cells assessed as change in triglyceride content in liver at 35 mg/kg, ip administered every 3 days for 24 days; type: organism-based; conditions: in vivo, 576 h, time 24 day
[3] = AUC (0 to infinity) in Sprague-Dawley rat at 35 mg/kg, ip measured upto 24 hrs by LC-MS/MS analysis; type: ADME, organism-based; conditions: in vivo
[4] = biological target: T1, von Hippel-Lindau disease tumor suppressor/Transcriptional coactivator YAP1 (Homo sapiens, UniProt P40337+P46937); experiment: PROTAC activity at YAP/VHL in human Huh-7 cells assessed as induction of YAP degradation incubated for 48 hrs by Western blot analysis; type: cell-based
Target sequence in this assay (P40337 whole entry, the tested form may be a part): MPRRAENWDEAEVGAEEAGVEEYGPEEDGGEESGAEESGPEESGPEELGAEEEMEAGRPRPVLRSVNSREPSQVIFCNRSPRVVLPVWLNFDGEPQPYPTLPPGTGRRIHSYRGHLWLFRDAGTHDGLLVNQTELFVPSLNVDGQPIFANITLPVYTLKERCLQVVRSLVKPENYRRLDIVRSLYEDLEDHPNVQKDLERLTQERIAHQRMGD
Target sequence in this assay (P46937 whole entry, the tested form may be a part): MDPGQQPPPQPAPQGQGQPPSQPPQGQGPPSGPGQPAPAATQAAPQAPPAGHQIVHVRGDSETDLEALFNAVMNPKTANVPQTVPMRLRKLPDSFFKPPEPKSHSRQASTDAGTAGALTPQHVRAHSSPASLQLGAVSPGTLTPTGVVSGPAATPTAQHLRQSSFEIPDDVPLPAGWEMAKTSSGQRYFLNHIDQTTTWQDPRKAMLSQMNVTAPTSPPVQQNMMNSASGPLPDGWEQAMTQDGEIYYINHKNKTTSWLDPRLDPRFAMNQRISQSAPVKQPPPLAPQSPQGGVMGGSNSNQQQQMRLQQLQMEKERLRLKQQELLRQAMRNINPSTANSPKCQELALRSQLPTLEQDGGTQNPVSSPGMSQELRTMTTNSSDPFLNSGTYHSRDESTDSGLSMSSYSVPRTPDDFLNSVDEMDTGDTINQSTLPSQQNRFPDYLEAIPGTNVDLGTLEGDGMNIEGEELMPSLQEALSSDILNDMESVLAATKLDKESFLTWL

[5] = biological target: von Hippel-Lindau disease tumor suppressor/WW domain-containing transcription regulator protein 1 (Homo sapiens) (UniProt P40337+Q9GZV5); experiment: PROTAC activity at TAZ/VHL in human Huh-7 cells assessed as reduction in TAZ expression incubated for 24 hrs by Western blot analysis; type: cell-based; conditions: dose 5-20 µM
Sequence of von Hippel-Lindau disease tumor suppressor/WW domain-containing transcription regulator protein 1 (Homo sapiens) (P40337 whole entry, looked up, the tested form may be a part): as the sequence (P40337 whole entry, the tested form may be a part) above
Sequence of von Hippel-Lindau disease tumor suppressor/WW domain-containing transcription regulator protein 1 (Homo sapiens) (Q9GZV5 whole entry, looked up, the tested form may be a part): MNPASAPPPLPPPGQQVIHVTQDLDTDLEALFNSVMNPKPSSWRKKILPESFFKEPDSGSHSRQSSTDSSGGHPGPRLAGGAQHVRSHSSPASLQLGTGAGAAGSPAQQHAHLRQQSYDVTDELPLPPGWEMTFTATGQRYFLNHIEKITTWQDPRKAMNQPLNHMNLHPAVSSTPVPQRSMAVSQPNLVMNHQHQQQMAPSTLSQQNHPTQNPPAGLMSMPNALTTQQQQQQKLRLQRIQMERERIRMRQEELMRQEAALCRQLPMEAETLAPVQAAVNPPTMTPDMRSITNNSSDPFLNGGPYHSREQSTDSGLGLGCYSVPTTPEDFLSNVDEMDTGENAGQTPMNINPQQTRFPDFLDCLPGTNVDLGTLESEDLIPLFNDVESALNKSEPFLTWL

[6] = biological target: T1, von Hippel-Lindau disease tumor suppressor/Transcriptional coactivator YAP1; experiment: PROTAC activity at YAP/VHL in human Huh-7 cells assessed as induction of YAP degradation at 20 uM incubated at 24 hrs by Western blot analysis; type: cell-based
Target sequence in this assay (P40337 whole entry, looked up, the tested form may be a part): as the sequence (P40337 whole entry, the tested form may be a part) above
Target sequence in this assay (P46937 whole entry, looked up, the tested form may be a part): as the sequence (P46937 whole entry, the tested form may be a part) above

[7] = biological target: T1, von Hippel-Lindau disease tumor suppressor/Transcriptional coactivator YAP1; experiment: PROTAC activity at YAP/VHL in human NCI-H226 cells assessed as induction of YAP degradation at 20 uM incubated at 48 hrs by Western blot analysis; type: cell-based
Target sequence in this assay (P40337 whole entry, looked up, the tested form may be a part): as the sequence (P40337 whole entry, the tested form may be a part) above
Target sequence in this assay (P46937 whole entry, looked up, the tested form may be a part): as the sequence (P46937 whole entry, the tested form may be a part) above

[8] = test system: Huh-7; experiment: Antitumor activity against human Huh-7 cells xenografted in immunodeficient male NSG mouse assessed as tumor growth inhibition at 35 mg/kg, ip administered every 3 days for 24 days; type: functional; conditions: Huh-7, 576 h, time 24 day, read-out: TGI
[9] = biological target: T1, von Hippel-Lindau disease tumor suppressor/Transcriptional coactivator YAP1; experiment: PROTAC activity at YAP/VHL in human NCI-H226 cells assessed as downregulation of YAP level at 20 uM incubated at 24 hrs by Western blot analysis; type: cell-based
Target sequence in this assay (P40337 whole entry, looked up, the tested form may be a part): as the sequence (P40337 whole entry, the tested form may be a part) above
Target sequence in this assay (P46937 whole entry, looked up, the tested form may be a part): as the sequence (P46937 whole entry, the tested form may be a part) above

[10] = biological target: Transcriptional coactivator YAP1 (Homo sapiens) (UniProt P46937); experiment: Inhibition of YAP nuclear localization in human Huh-7 cells assessed as decrease in mean YAP intensity incubated for 12 hrs by immunofluorescence based microscopic analysis; type: cell-based; conditions: dose <= 20.0 µM
Sequence of Transcriptional coactivator YAP1 (Homo sapiens) (P46937 whole entry): as the sequence (P46937 whole entry, the tested form may be a part) above

[11] = biological target: T1, von Hippel-Lindau disease tumor suppressor/Transcriptional coactivator YAP1; experiment: PROTAC activity at YAP/VHL in human NCI-H226 cells assessed as reduction in CTGF expression incubated for 48 hrs by Western blot analysis; type: cell-based; conditions: dose 2.5-20 µM
Target sequence in this assay (P40337 whole entry, looked up, the tested form may be a part): as the sequence (P40337 whole entry, the tested form may be a part) above
Target sequence in this assay (P46937 whole entry, looked up, the tested form may be a part): as the sequence (P46937 whole entry, the tested form may be a part) above

[12] = biological target: T1, von Hippel-Lindau disease tumor suppressor/Transcriptional coactivator YAP1; experiment: PROTAC activity at YAP/VHL in human NCI-H226 cells assessed as induction of YAP degradation at 2.5 to 20 uM incubated for 48 hrs by Western blot analysis relative to control; type: cell-based; conditions: dose 2.5-20 µM
Target sequence in this assay (P40337 whole entry, looked up, the tested form may be a part): as the sequence (P40337 whole entry, the tested form may be a part) above
Target sequence in this assay (P46937 whole entry, looked up, the tested form may be a part): as the sequence (P46937 whole entry, the tested form may be a part) above

[13] = biological target: T1, von Hippel-Lindau disease tumor suppressor/Transcriptional coactivator YAP1; experiment: PROTAC activity at YAP/VHL in human NCI-H226 cells assessed as reduction in CTGF expression at 5 uM incubated for 48 hrs by Western blot analysis; type: cell-based
Target sequence in this assay (P40337 whole entry, looked up, the tested form may be a part): as the sequence (P40337 whole entry, the tested form may be a part) above
Target sequence in this assay (P46937 whole entry, looked up, the tested form may be a part): as the sequence (P46937 whole entry, the tested form may be a part) above

[14] = biological target: T1, von Hippel-Lindau disease tumor suppressor/Transcriptional coactivator YAP1; experiment: PROTAC activity at YAP/VHL in human Huh-7 cells assessed as induction of YAP degradation by measuring half life at 20 uM incubated at 48 hrs by Western blot analysis; type: cell-based
[15] = Toxicity in immunodeficient male NSG mouse xenografted with human Huh-7 cells assessed as change in ALT level in liver at 35 mg/kg, ip administered every 3 days for 24 days; type: organism-based; conditions: in vivo, 576 h, time 24 day
[16] = test system: Huh-7; experiment: Antitumor activity against human Huh-7 cells xenografted in immunodeficient male NSG mouse assessed as inhibition of tumor growth at 35 mg/kg, ip administered for 3 days; type: functional, organism-based; conditions: time 3.0 day
[17] = Half life in Sprague-Dawley rat at 35 mg/kg, ip measured upto 24 hrs by LC-MS/MS analysis; type: ADME, organism-based; conditions: in vivo

Cmax [1]: 0.193 µg/mL | AUC(0-inf) [3]: 2.69 µg·h/mL | DC50 [4]: 4.3 µM | Activity [5]: Dose-Dependent Effect | Activity [6]: 65% | Activity [7]: 97% | Activity [9]: Active | inhibition [10]: Dose-Dependent Effect | Activity [11]: Dose-Dependent Effect | Emax [12]: 97% | Activity [13]: Active | T1/2 [14]: 16.5 h | half-life [17]: 13.3 h
SMILES: COc1cc(-c2cc(-c3ccccc3)nc3c2CC(=O)Nc2ccccc2-3)ccc1OCCOCCOCCC(=O)N[C@H](C(=O)N1C[C@H](O)C[C@H]1C(=O)N[C@@H](C)c1ccc(-c2scnc2C)cc1)C(C)(C)C
Activity [2]: Non-Toxic | inhibition in vivo at 35 mg/kg [8]: 82% | Activity [15]: Non-Toxic | Activity [16]: Active
